Laboratory results as given in patent US7989417B2, “Linkers for radiopharmaceutical compounds” (Bracco Imaging S.p.A., priority 2003, dated 2011).

Assays:
PC3 tumor = assay: Radiotherapy studies in PC3 tumor-bearing nude mouse model; type: in vivo; settings: Lu-177 labelled; for survival, short term efficacy study: 30 mCi/kg i.v. or s.c., up to 30 days, versus no treatment and versus same dose of L134
Description: A. Short Term Efficacy Studies: • Radiotherapy studies were performed using the PC3 tumor-bearing nude mouse model. […] (n=12 for each treatment group and n=36 for the untreated control group). For the first study, mice were administered 100 μL of ^177Lu-labelled compound of the invention at 30 mCi/kg, i.v, or s.c. under sterile conditions. The subjects were housed in a barrier environment for up to 30 days. Body weight and tumor size (by caliper measurement) were collected on each subject 3 times per week for the duration of the study. Criteria for early termination included: death; loss of total body weight (TBW) equal to or greater than 20%; tumor size equal to or greater than 2 cm^3.

[1] = Tracer dose biodistribution in xenografted PC3 tumor-bearing mice; settings: Lu-177 labelled; for uptake in the tumor (in words): 1 and 24 h; for uptake in the mouse pancreas (in words): compared with L134, pancreas known to have GRP receptors
Description: In all studies, mice were administered 100 μL of ^177Lu-labelled test compound at 200 μCi/kg, i.v., with a residence time of 1 and 24 h per group (n=3-4). Tissues were analyzed in an LKB 1282 CompuGamma counter with appropriate standards.

rat epididymal fat cells [2] = assay: Fat cell assay: activation of glucose oxidation; type: cell-based; settings: buffers containing serum albumin; compared with native insulin
human serum albumin = human serum albumin (Homo sapiens, UniProt P02768); assay: Binding to human serum albumin by ultrafiltration; settings: 1 nM insulin solution in 0.6 mM human serum albumin, spiked with 125I-labeled insulin
Description: Binding to human serum albumin is determined by ultrafiltration according to Whitlam J. B. & Brown K. F.: J. Pharm. Sci. 70, 146-150, 1981, applying 1 nM bovine insulin solution in 0.6 mM human serum albumin, spiked with ^125I-labeled insulin. 95% of the insulin is bound. It is evident that such binding to albumin will reduce the renal elimination of the modified insulin (Compounds B and D) relative to that of native insulin.

rat epididymal fat cells [3] = settings: bound to a 1:1 conjugate of avidin and ferritin; compared with insulin; cited from earlier work

Molecule	survival, short term efficacy study (PC3 tumor)	uptake in the tumor (in words) ([1]; compared with control L134)	uptake in the mouse pancreas (in words) [1]	activity in fat cell assay (activation of glucose oxidation) (rat epididymal fat cells [2])	also measured
CSCC[C@H](NC(=O)[C@H](CC(C)C)NC(=O)[C@H](Cc1c[nH]cn1)NC(=O)CNC(=O)[C@@H](NC(=O)[C@H](C)NC(=O)[C@H](Cc1c[nH]c2ccccc12)NC(=O)[C@H](CCC(N)=O)NC(=O)CC[C@@H](C)[C@H]1CC[C@H]2[C@@H]3CC[C@@H]4C[C@@H](NC(=O)CNC(=O)CN5CCN(CC(=O)O)CCN(CC(=O)O)CCN(CC(=O)O)CC5)CC[C@]4(C)[C@H]3C[C@H](O)[C@]12C)C(C)C)C(N)=O [Compound L63, N-[(3β,5β,12α)-3-[[[[[4,7,10-Tris(carboxymethyl)-1,4,7,10-tetraazacyclododec-1-yl]acetyl]amino]acetyl]amino]-12-hydroxy-24-oxocholan-24-yl]-L-glutaminyl-L-tryptophyl-L-alanyl-L-valyl-glycyl-L-histidyl-L-leucyl-L-methioninamide]	increased survival	high tumour uptake	much higher		distribution of radioactivity in blood, liver and kidneys (in words) ([1]; compared with control L134): increased blood and liver values at early times
CSCC[C@H](NC(=O)[C@H](CC(C)C)NC(=O)[C@H](Cc1c[nH]cn1)NC(=O)CNC(=O)[C@@H](NC(=O)[C@H](C)NC(=O)[C@H](Cc1c[nH]c2ccccc12)NC(=O)[C@H](CCC(N)=O)NC(=O)CC[C@@H](C)[C@H]1CC[C@H]2[C@@H]3[C@H](O)C[C@@H]4C[C@@H](NC(=O)CNC(=O)CN5CCN(CC(=O)O)CCN(CC(=O)O)CCN(CC(=O)O)CC5)CC[C@]4(C)[C@H]3C[C@H](O)[C@]12C)C(C)C)C(N)=O [Compound L64, N-[(3β,5β,7α,12α)-3-[[[[[4,7,10-Tris(carboxymethyl)-1,4,7,10-tetraazacyclododec-1-yl]acetyl]amino]acetyl]amino]-7,12-dihydroxy-24-oxocholan-24-yl]-L-glutaminyl-L-tryptophyl-L-alanyl-L-valyl-glycyl-L-histidyl-L-leucyl-L-methioninamide]	increased survival	much higher	much higher		survival, repeat study (PC3 tumor; same dose, n=46, followed longer, relative to controls (n=36), p<0.0001): significantly increased survival
Bovine 1-[[(3β,5β,12α)-23-[(1,1-dimethyl)ethoxycarbonyl]-12-hydroxy-24-norcholan-3-yl]amino]carbonyl-3,5-bis[[4-(insulin-N^εB29-yl)-1,4-dioxobutyl]amino]benzene [Compound D]				identical activity to native insulin	
Bovine N^eB29-[4-[[(3β,5β,12α)-23-carboxy-12-hydroxy-24-norcholan-3-yl]amino]-4-oxobutanoyl]-insulin [Compound B]				identical activity to native insulin	bound to human serum albumin (human serum albumin): 95%
N^εB29-biotinylinsulin					dose-response curve for the activation of glucose oxidation (rat epididymal fat cells [3]): same dose-response curve as insulin
